Values quoted from earlier work, collected in patent US6046331A, “Imidazolones and their use in treating benign prostatic hyperplasia and other disorders” (Synaptic Pharmaceutical Corporation, priority 1998, dated 2000).

Assays:
[1] = in vivo; cited from earlier work
[2] = cited from earlier work

## Clc1cccc(Cl)c1N=C1NCCN1 [clonidine]
[1]
  side effects: dry mouth and sedation

## CC(COc1ccccc1)N(CCCl)Cc1ccccc1 (stereo not shown) [phenoxybenzamine]
[1]
  side effects: significant side effects such as dizziness and asthenia
[2]
  relieving the symptoms of / treating BPH: useful in relieving the symptoms of BPH

## COc1cc2nc(N3CCN(C(=O)c4ccco4)CC3)nc(N)c2cc1OC [prazosin]
[1]
  side effects: untoward side effects
[2]
  relieving the symptoms of / treating BPH: useful for treating BPH

## COc1cc2nc(N3CCN(C(=O)C4CCCO4)CC3)nc(N)c2cc1OC (stereo not shown) [terazosin]
[1]
  side effects: untoward side effects
[2]
  relieving the symptoms of / treating BPH: useful for treating BPH
